The structures appear in SMILES notation. pIC50: −log10 of the molar value.

The record followed here is US9328078B2, “Benzofurazan anti-amyloid compounds and methods” (Treventis Corporation, priority 2012, dated 2016).

Experiment [1] concerns the target Aβ40 (Homo sapiens, UniProt P05067). Description: kinetic ThT assay for Aβ aggregation. The format is biochemical. The settings on record: for inhibition at 5 µM: 80 h, compound 5 μm, read-out: % inhib Aβ 40 (5 μm); for inhibition at 10 µM: compound 10 μM, read-out: % inhib Aβ 40 10 μM. On the procedure:
Aβ40 (1.0 mg) was pre-treated in a 1.5 mL microfuge tube with HFIP (1 mL) and sonicated for 20 min to disassemble any pre-formed Aβ aggregates. The HFIP was removed with a stream of argon and the Aβ dissolved in Tris base (5.8 mL, 20 mM, pH˜10). The pH was adjusted to 7.4 with concentrated HCl (˜10 μL) and the solution filtered using a syringe filter (0.2 μm) before being used.
The kinetic ThT assay for AP aggregation is similar to that of Chalifour et al (Chalifour et al, 2003, J. Biol. Chem. 278:34874-81). Briefly, pre-treated Aβ40 or Aβ42 (40 μM in 20 mM Tris, pH 7.4) was diluted with an equal volume of 8 μM Thioflavin T (ThT) in Tris (20 mM, pH 7.4, 300 mM NaCl). Aliquots of Aβ/ThT (200 μL) were added to wells of a black polystyrene 96-well plate, followed by 2 μL of a compound in DMSO (variable concentration), or DMSO alone (controls). Incubations were performed in triplicate and were taken to contain 20 μM Aβ, various concentration of compound in 20 mM Tris, pH 7.4, 150 mM NaCl, 1% DMSO. Plates were covered with clear polystyrene lids and incubated at 37° C. in a Tecan Genios microplate reader.
Fluorescence readings (λex=450 nm, λem=480 nm) were taken every 15 min., after first shaking at high intensity for 15 s and allowing to settle for 10 s before each reading. Active compounds attenuated the increase in fluorescence over time that occurred in controls. In FIGS. 1-7, the time this procedure was performed extended to 80 hours (rightmost part of X-axis), at which point fluorescence increase generally reached an asymptote. Applying a definition of DMSO control at 80 hr as 100% aggregation (0% inhibition) and DMSO control at 0 hr as 0% aggregation (100% inhibition), a % inhibition score where higher is better can be calculated for a given concentration of compound. By repeating this procedure over several concentrations, a […] (IC50) can be measured, as is given in the table below for some compounds.
Data is summarized in the table below; numbers given in parenthesis are the values in that particular experiment for compound ID 1027, given as the first entry in this table for comparison.

For experiment [2], the target named is T1, Biotin-Aβ(1-42) (Homo sapiens, UniProt P05067).
T1 construct: Biotin-Aβ(1-42) (AnaSpec) at 0.2 mg/ml in hexafluoroisopropanol (HFIP); purchased AnaSpec
T1 sequence (P05067 672-713 limits assumed): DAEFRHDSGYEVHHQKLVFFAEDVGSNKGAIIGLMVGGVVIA
In words: Biotin-Aβ(1-42) oligomeric assay. The format is biochemical. Conditions: inhibition of oligomer formation at 25 uM, 30 minutes; higher = more inhibition. As for the experimental part:
The following assay was adapted from H. LeVine III. Biotin-avidin interaction-based screening assay for Alzheimer's β-peptide oligomer inhibitors, Anal. Biochem. 356 (2006) 265-272 and A. Frey, B. Meckelein, D. Externest, M. A. Schmidt A stable and highly sensitive 3,3′,5,5′-tetramethylbenzidine-based substrate reagent for enzyme-linked immunosorbent assays, J. Immunol. Methods 233 (2000) 47-56.
Biotin-Aβ(1-42) (AnaSpec) at 0.2 mg/ml in hexafluoroisopropanol (HFIP) was further diluted in 20 volumes of HFIP, which was then evaporated under a stream of argon. 20 volumes of trifluoroacetic acid was added and let rest for 10 minutes, then evaporated under a stream of argon. Another 20 volumes of HFIP was added and evaporated under a stream of argon. Biotin-Aβ(1-42) was brought to a final concentration of 2.3 mg/ml in DMSO. Oligomer formation was initiated in 96 well round bottom polypropylene plates by diluting the prepared biotin-Aβ(1-42) 50× in 20 mM sodium phosphate pH 7.5, 150 mM NaCl in the presence of vehicle or compound. Oligomer formation was halted after 30 minutes by the addition of 50 μl/well of 0.3% Tween-20.
96 well Costar high-binding microplates were coated overnight at +4° C. with 50 μl/well of 1 ug/ml NeutrAvidin (ThermoScientific) in 10 mM sodium phosphate, pH 7.5. Plates were blocked for 2 hours at room temperature with 200 μl/well 20 mM sodium phosphate pH 7.5, 150 mM NaCl, 0.1% Tween-20. The oligomer preparation was transferred at 50 μl/well to the blocked plate and incubated for 2 hours at room temperature with shaking at 150 rpm. The plate was then washed three times with 200 μl/well 20 mM tris-HCl pH 7.5, 34 mM NaCl, 0.1% Tween-20 (TBS-T). Streptavidin-HRP (Rockland Immunochemicals) [1:20,000] in 20 mM sodium phosphate pH 7.5, 150 mM NaCl, 0.1% Tween-20 was added at 50 μl/well and incubated in the dark at room temperature for 1 hour with shaking at 150 rpm. The plate was washed three times with 200 μl/well of TBS-T. Tetramethylbenzidine/H2O2 substrate was prepared by mixing 250 μl of 41 mM 3,3′,5,5′-tetramethylbenzidine, 8.2 mM tetrabutylammonium borohydride in dimethylacetamide with 10 ml of 205 mM K3 citrate pH 4.0, 3.075 mM H2O2 and incubating for 15 minutes at room temperature. Prepared substrate solution was added at 100 μl/well and the reaction was allowed to proceed for 15 minutes, after which it was terminated by the addition of 100 μl/well of 1% H2SO4. The OD450nm was determined using a Tecan Infinite F200 plate reader.

Setting [3] is: DMSO control at 80 hr = 0% inhibition, parenthesis = compound 1027.

Aβ40, sequence (P05067 672-711 limits assumed, species assumed): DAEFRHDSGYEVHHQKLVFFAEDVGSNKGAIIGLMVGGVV

Usually pIC50 stands for the IC50 on a negative log10 scale, so that one unit is a factor of ten. As for `OC(c1cccc(-c2cc(N3CCC(N4CCCC4)CC3)c3nonc3c2)c1)C(F)(F)F` (centres unmarked) [TRV-1387], in experiment [1] (setting [3]), the inhibition at 5 µM was determined as 40% and the inhibition at 10 µM worked out at 52%. Also, the negative-log IC50 (pIC50) in experiment [1] (ThT fluorescence, 20 μM Aβ, 37° C., up to 80 hr, parenthesis = compound 1027 in same experiment, read-out: IC50 A β 1-40) is 5.24. Further, in experiment [1] (compound 20 μM, DMSO control at 80 hr = 0% inhibition, parenthesis = compound 1027, read-out: % inhib. A β 40 (20 μM)), the inhibition at 20 µM stood at 78%. The inhibition at 25 µM in experiment [2] was found to be 75%.
Turning to `CC(C)(O)C1CN(c2cc(-c3cccc(C(O)C(F)(F)F)c3)cc3nonc23)C1` (centres unmarked) [TRV-1435], in experiment [1] (setting [3]), the inhibition at 5 µM came to 52% and the inhibition at 10 µM was 66%. Further, in experiment [2], the inhibition at 25 µM was 29%.
For `OC1CCN(c2cc(-c3cccc(C(O)C(F)(F)F)c3)cc3nonc23)C1` (centres unmarked) [TRV-1448] the same measures were 45%, 55% and -23%.
Turning to `CC(C)(O)[C@@H]1CCCN1c1cc(-c2cccc(C(O)C(F)(F)F)c2)cc2nonc12` (some centres unmarked) [TRV-1449], in experiment [1] (setting [3]), the inhibition at 5 µM stood at 55% and the inhibition at 10 µM turned out to be 72%. For the same molecule, the inhibition at 25 µM in experiment [2] is -3%.
With `OC[C@@H]1CCCN1c1cc(-c2cccc(C(O)C(F)(F)F)c2)cc2nonc12` (some centres unmarked) [TRV-1450], in experiment [1] (setting [3]), the inhibition at 5 µM was found to be 57% and the inhibition at 10 µM turned out to be 79%. Also, the inhibition at 25 µM in experiment [2] came out at 32%.
On the same counts, the results for `CC(O)C1CN(c2cc(-c3cccc(C(O)C(F)(F)F)c3)cc3nonc23)C1` (centres unmarked) [TRV-1451] are 54%, 73% and 4%.
Regarding `OC(c1cccc(-c2cc(N3CCC[C@H]3CN3CCCC3)c3nonc3c2)c1)C(F)(F)F` (some centres unmarked) [TRV-1452], in experiment [1] (setting [3]), the inhibition at 5 µM turned out to be 50% and the inhibition at 10 µM stood at 63%. Further, the inhibition at 25 µM in experiment [2] stood at 76%.
For the molecule `OC(c1cccc(-c2cc(N3CC(CN4CCOCC4)C3)c3nonc3c2)c1)C(F)(F)F` (centres unmarked) [TRV-1455], in experiment [1] (setting [3]), the inhibition at 5 µM worked out at 41% and the inhibition at 10 µM was found to be 60%. In addition, the inhibition at 25 µM in experiment [2] stood at 29%.
On the same counts, the results for `OC(c1cccc(-c2cc(N3CC(N4CCCC4)C3)c3nonc3c2)c1)C(F)(F)F` (centres unmarked) [TRV-1456] are 36%, 64% and 3%.
On the same counts, the results for `OC(c1cccc(-c2cc(N3CC(CN4CCCC4)C3)c3nonc3c2)c1)C(F)(F)F` (centres unmarked) [TRV-1457] are 51%, 65% and 82%.
On the same counts, the results for `CN(Cc1nccs1)c1cc(-c2cccc(C(O)C(F)(F)F)c2)cc2nonc12` (centres unmarked) [TRV-1459] are 47%, 62% and -32%.
In the case of `CN(Cc1ccc(F)cc1)c1cc(-c2cccc(C(=O)N3CCCC3)c2)cc2nonc12` [TRV-1460], in experiment [1] (setting [3]), the inhibition at 5 µM amounted to 36% and the inhibition at 10 µM came out at 44%. The inhibition at 25 µM in experiment [2] came out at 10%.
On the same counts, the results for `COC(C)C1CN(c2cc(-c3cccc(C(O)C(F)(F)F)c3)cc3nonc23)C1` (centres unmarked) [TRV-1461] are 58.9%, 71.7% and -28%.
On the same counts, the results for `OC(c1cccc(-c2cc(N3CC(N4CCOCC4)C3)c3nonc3c2)c1)C(F)(F)F` (centres unmarked) [TRV-1462] are 53%, 48% and 23%.
As to `CN(C)CCCN(C)c1cc(-c2cccc(C(O)C(F)(F)F)c2)cc2nonc12` (centres unmarked) [TRV-1465], in experiment [2], the inhibition at 25 µM turned out to be 69%.
Take `CN(C)C1CCN(c2cc(-c3cccc(C(O)C(F)(F)F)c3)cc3nonc23)CC1` (centres unmarked) [TRV-1466]: in experiment [1] (setting [3]), the inhibition at 5 µM came out at 36.9% and the inhibition at 10 µM was 49%. Moreover, the inhibition at 25 µM in experiment [2] worked out at 72%.
Turning to `CN(C)CCCN(C)c1cc(-c2cccc(C(O)C(F)(F)F)c2)cc2nonc12` (centres unmarked) [compound 1463], in experiment [1] (setting [3]), the inhibition at 5 µM was determined as 43.8% and the inhibition at 10 µM came out at 62%.
